22 compounds from PMC12467068, “Design, Synthesis, and Computational Insights into PKMYT1 Inhibitors for the Treatment of Breast Cancer” (Biomedicines, 2025) can be followed below.

Where only a bound is given, the exact number is not on record here.

Experiment [1] deals with T1, PKMYT1 (Homo sapiens, UniProt Q99640).
T1 sequence (Q99640 1-499): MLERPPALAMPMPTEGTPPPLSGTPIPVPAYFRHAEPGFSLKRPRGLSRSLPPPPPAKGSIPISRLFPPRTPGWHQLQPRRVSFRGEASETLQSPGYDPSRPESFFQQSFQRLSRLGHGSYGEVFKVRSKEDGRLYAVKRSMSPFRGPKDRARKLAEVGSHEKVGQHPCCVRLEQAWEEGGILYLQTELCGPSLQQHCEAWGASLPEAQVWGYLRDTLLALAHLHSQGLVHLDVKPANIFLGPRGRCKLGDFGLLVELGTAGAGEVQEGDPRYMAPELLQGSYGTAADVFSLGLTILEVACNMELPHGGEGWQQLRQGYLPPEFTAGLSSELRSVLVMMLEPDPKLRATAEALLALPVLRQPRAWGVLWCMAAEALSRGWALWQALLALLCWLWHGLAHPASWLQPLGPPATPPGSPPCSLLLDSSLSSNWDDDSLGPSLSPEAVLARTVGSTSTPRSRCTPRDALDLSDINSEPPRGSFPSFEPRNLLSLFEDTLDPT
Put plainly: PKMYT1 enzyme inhibition assay (LanthaScreen Eu kinase binding method). The following applies: mean of two separate experiments. The method, then:
The PKMYT1 kinase assay was conducted with the LanthaScreen™ Eu kinase binding method, as provided by Thermo Fisher Scientific (Waltham, MA, USA). Initially, compounds were prepared at a concentration of 4 mM in DMSO and subsequently diluted to various concentrations in 1X buffer. […] The plate was then incubated in the dark at 25 °C for 1 h, and fluorescence signals were recorded at 665 nm and 615 nm.

Experiment [2] concerns HCC1569 cells. Put plainly: Cell proliferation assay (CCK-8), HCC1569. The experiment is classed as cell-based. The following applies: for IC50: Homo sapiens, HCC1569, 120 h, CCNE1-amplified breast cancer cells, 5-day incubation, mean ± SD, n = 3. The method, then: (§1) HCC1569 and OVCAR3 cells (2 × 10^3/well) were seeded in 96-well plates and cultured for 24 h at 37 °C, 5% CO2. Compounds at varying concentrations were added, followed by 5-day incubation. Cell viability was assessed using Cell Counting Kit-8 (CCK-8) with absorbance measurement at 450 nm. HCC1569 (BNCC341698) was purchased from BNCC and OVCAR3 (CL-0178) was purchased from Procell.

Experiment [3] has as its system OVCAR3 cells. Kind of experiment: Cell proliferation assay (CCK-8), OVCAR3. The experiment is classed as cell-based. The conditions noted are these: for IC50: Homo sapiens, OVCAR-3, 120 h, CCNE1-amplified ovarian cancer cells, 5-day incubation, mean ± SD, n = 3. How it is done: as §1
The test system of experiment [4] is A549 cells. Kind of experiment: Anti-proliferative activity in low-expressing CCNE1 cells A549. The experiment is classed as cell-based. The following applies: Homo sapiens, A549; lung cancer cells, low CCNE1 expression; mean ± SD, n = 3.
Experiment [5] relates to BEAS-2B cells. Put plainly: Anti-proliferative activity in normal lung epithelial cells BEAS-2B. The experiment is classed as cell-based. The following applies: Homo sapiens, BEAS-2B; lung epithelial cells; mean ± SD, n = 3.

The compound `Cc1ccc(O)c(C)c1NC(=O)c1cnc(Nc2ccccc2)nc1` [Compound M1] displayed an IC50 in experiment [1] of 0.22 µM.
Regarding `Cc1ccc(O)c(C)c1NC(=O)c1cnc(Nc2ccccc2)nc1N` [MY-1, 4-amino-2-(phenylamino)-N-(3-hydroxy-2,6-dimethylphenyl)pyrimidine-5-carboxamide], the IC50 in experiment [1] came out at 0.026 µM.
Still for that read-out and setting: next, `Cc1ccc(O)c(C)c1NC(=O)c1cnc(Nc2ccccc2Cl)nc1N` [MY-2, 4-amino-2-((2-chlorophenyl)amino)-N-(3-hydroxy-2,6-dimethylphenyl)pyrimidine-5-carboxamide]: 0.15 µM.
The same measure, in the same setting: then `Cc1ccc(O)c(C)c1NC(=O)c1cnc(Nc2cccc(Cl)c2)nc1N` [MY-3, 4-amino-2-((3-chlorophenyl)amino)-N-(3-hydroxy-2,6-dimethylphenyl)pyrimidine-5-carboxamide], with 0.017 µM; and `Cc1ccc(O)c(C)c1NC(=O)c1cnc(Nc2ccc(Cl)cc2)nc1N` [MY-4, 4-amino-2-((4-chlorophenyl)amino)-N-(3-hydroxy-2,6-dimethylphenyl)], with 0.016 µM; and `Cc1ccc(O)c(C)c1NC(=O)c1cnc(Nc2ccc(F)cc2)nc1N` [MY-5, 4-amino-2-((4-fluorophenyl)amino)-N-(3-hydroxy-2,6-dimethylphenyl)pyrimidine-5-carboxamide], with 0.02 µM.
Still for that read-out and setting: then `Cc1ccc(O)c(C)c1NC(=O)c1cnc(Nc2ccc(Br)cc2)nc1N` [MY-6, 4-amino-2-((4-bromophenyl)amino)-N-(3-hydroxy-2,6-dimethylphenyl)pyrimidine-5-carboxamide], with 0.036 µM.
Turning to `Cc1ccc(Nc2ncc(C(=O)Nc3c(C)ccc(O)c3C)c(N)n2)cc1` [MY-7, 4-amino-2-(p-tolylamino)-N-(3-hydroxy-2,6-dimethylphenyl)pyrimidine-5-carboxamide], the IC50 in experiment [1] amounted to 0.028 µM.
The same measure, in the same setting: next, `Cc1ccc(O)c(C)c1NC(=O)c1cnc(Nc2ccc(C(C)C)cc2)nc1N` [MY-8, 4-amino-2-((4-isopropylphenyl)amino)-N-(3-hydroxy-2,6-dimethylphenyl)pyrimidine-5-carboxamide]: 0.046 µM; `Cc1ccc(O)c(C)c1NC(=O)c1cnc(Nc2ccc(-c3ccccc3)cc2)nc1N` [MY-9, 4-amino-2-([1,1′-biphenyl]-4-ylamino)-N-(3-hydroxy-2,6-dimethylphenyl)pyrimidine-5-carboxamide]: 0.032 µM.
Take `Cc1ccc(O)c(C)c1NC(=O)c1cnc(Nc2ccc(N3CCOCC3)cc2)nc1N` [MY-10, 4-amino-2-((4-morpholinophenyl)amino)-N-(3-hydroxy-2,6-dimethylphenyl)pyrimidine-5-carboxamide]: the IC50 in experiment [1] stood at 0.0086 µM; in experiment [2], 2.95 ± 0.32 µM; in experiment [3], 0.81 ± 0.06 µM.
The corresponding values for `Cc1ccc(O)c(C)c1NC(=O)c1cnc(Nc2ccc(N3CCN(C)CC3)cc2)nc1N` [MY-11, 4-amino-2-((4-(4-methylpiperazin-1-yl)phenyl)amino)-N-(3-hydroxy-2,6-dimethylphenyl)pyrimidine-5-carboxamide] are 0.0071 µM, 3.56 ± 0.59 µM and 2.12 ± 0.33 µM.
The corresponding values for `Cc1ccc(O)c(C)c1NC(=O)c1cnc(Nc2ccc([N+](=O)[O-])cc2)nc1N` [MY-12, 4-amino-2-((4-nitrophenyl)amino)-N-(3-hydroxy-2,6-dimethylphenyl)pyrimidine-5-carboxamide] are 0.0051 µM, 6.35 ± 0.31 µM and 0.74 ± 0.11 µM.
`Cc1ccc(O)c(C)c1NC(=O)c1cnc(Nc2ccc(P(C)(C)=O)cc2)nc1N` [MY-13, 4-amino-2-((4-(dimethylphosphoryl)phenyl)amino)-N-(3-hydroxy-2,6-dimethylphenyl)pyrimidine-5-carboxamide]: the IC50 in experiment [1] was 0.0079 µM; in experiment [2], greater than 8 µM; in experiment [3], greater than 8 µM. Besides, the “anti-proliferative activity (in words)” value in experiment [2] (HCC1569) and in experiment [3] (OVCAR3) was “complete loss of activity” each time.
`Cc1ccc(O)c(C)c1NC(=O)c1cnc(Nc2ccc(C(=O)N(C)C)cc2)nc1N` [MY-15, 4-amino-2-((4-(dimethylcarbamoyl)phenyl)amino)-N-(3-hydroxy-2,6-dimethylphenyl)pyrimidine-5-carboxamide] returned an IC50 in experiment [1] of 0.015 µM.
Consider `Cc1ccc(O)c(C)c1NC(=O)c1cnc(Nc2ccc(C(=O)N3CCOCC3)cc2)nc1N` [MY-16, 4-amino-2-((4-(morpholine-4-carbonyl)phenyl)amino)-N-(3-hydroxy-2,6-dimethylphenyl)pyrimidine-5-carboxamide], for which the IC50 in experiment [1] was 0.0061 µM; in experiment [2], greater than 8 µM; in experiment [3] it was 1.19 ± 0.09 µM.
`Cc1ccc(O)c(C)c1NC(=O)c1cnc(Nc2ccc3c(c2)CN(C)C3=O)nc1N` [MY-17, 4-amino-2-((2-methyl-1-oxoisoindolin-5-yl)amino)-N-(3-hydroxy-2,6-dimethylphenyl)pyrimidine-5-carboxamide]: the IC50 in experiment [1] was 0.0033 µM; in experiment [2], greater than 8 µM; in experiment [3], 0.98 ± 0.07 µM.
The corresponding values for `Cc1ccc(O)c(C)c1NC(=O)c1cnc(Nc2ccc3ccoc3c2)nc1N` [MY-18, 4-amino-2-(benzofuran-6-ylamino)-N-(3-hydroxy-2,6-dimethylphenyl)pyrimidine-5-carboxamide] are 0.0085 µM, 6.97 ± 1.09 µM and 3.31 ± 0.18 µM.
In the same order, the values of `Cc1ccc(O)c(C)c1NC(=O)c1cnc(Nc2ccc3ncsc3c2)nc1N` [MY-19, 4-amino-2-(benzo[d]thiazol-6-ylamino)-N-(3-hydroxy-2,6-dimethylphenyl)pyrimidine-5-carboxamide] are 0.0035 µM, 3.14 ± 0.28 µM and 1.25 ± 0.06 µM.
In the same order, the values of `Cc1ccc(O)c(C)c1NC(=O)c1cnc(Nc2ccc3scnc3c2)nc1N` [MY-20, 4-amino-2-(benzo[d]thiazol-5-ylamino)-N-(3-hydroxy-2,6-dimethylphenyl)pyrimidine-5-carboxamide] are 0.0057 µM, 3.54 ± 0.21 µM and 0.6 ± 0.09 µM.
In experiment [1], `Cc1ccc(O)c(C)c1NC(=O)c1cnc(Nc2ccc3occc3c2)nc1N` [MY-21, 4-amino-2-(benzofuran-5-ylamino)-N-(3-hydroxy-2,6-dimethylphenyl)pyrimidine-5-carboxamide] yielded an IC50 of 0.012 µM.
For the compound `Cc1cc2c(C(N)=O)c(N)n(-c3c(C)ccc(O)c3C)c2nc1C` [RP-6306, reference compound], the IC50 in experiment [2] was found to be 0.11 ± 0.02 µM; in experiment [3], 0.09 ± 0.01 µM; in experiment [4] it was 1.45 ± 0.23 µM; in experiment [5], 2.6 ± 0.54 µM.
